Assay results as given in patent publication US6878388B1, “Vanadium compounds for treating proliferative cell disorders” (Parker Hughes Institute, priority 2000, dated 2005).

Legend:
[1] = test system: U373 glioblastoma cell spheroids; experiment: Spheroid migration assay; assay type: cell-based, human; conditions: for inhibition of tumor cell migration from the spheroids / migration distance: U373 spheroids; for migration distance: 48 h (DMSO control 745±29 μm)
Description: Dissociation and migration are the initial steps for infiltration of tumor cells into the surrounding tissue (Pilkington et al., Anticancer Res., 17: 4107-4109, 1997; Giese et al., Neurosurgery, 39: 235-252, 1996; Chintala et al., Front Biosci, 1: d324-39, 1996). Migration of brain tumor cells was monitored using U373 glioblastoma cell spheroids, as described previously (Narla et al., Clin Cancer Res, 4:2463-2471, 1998). Glioblastoma cell spheroids were cultured in 100 mm^2 tissue culture plates precoated with 0.75% agar prepared in MEM supplemented with 10% fetal bovine serum. The cells (5×10^6 cells) were suspended in the medium, seeded onto agar-coated plates and cultured for 5-7 days at 37° C. Spheroids with a diameter of 200-400 μm were selected for use in further experiments. For the migration experiments, the selected spheroids were incubated for 2 hours at 37° C. in serum-free medium containing [VO(SO4)(Me2-Phen)2] in concentrations ranging from 1 μM to 25 μM. The [VO(SO4)(Me2-Phen)2]-treated and vehicle control (DMSO, 0.1%) spheroids were transferred onto fibronectin-coated coverslips (Becton Dickinson, Bedford, Mass.) and placed in 6-well plates containing the same concentrations of [VO(SO4)(Me2-Phen)2] or DMSO in serum-free medium. Spheroids were then kept in a humidified 5CO2 incubator at 37° C. for 48 hours. A total of 4-6 spheroids were used for each concentration. Following the 48 hours incubation period, the spheroids were fixed and stained with Hema-3 solutions and mounted onto glass slides. The distance of tumor cell migration from the spheroid was measured using an ocular micrometer and a transmitted light microscope.
Spheroids measuring 259.2±41.9 μm in diameter were incubated with [VO(SO4)(Me2-Phen)2] or DMSO on fibronectin-coated coverslips. The U373 gioblastoma cells incubated with DMSO rapidly migrated to a distance 745±29 μm away from the spheroid.

[2] = test system: U373 human glioblastoma cells; experiment: MTT cytotoxicity assay, U373; assay type: cell-based; conditions: 48 h incubation, 3 independent experiments, read-out: IC50 (mean ± SE)
Description: Human brain tumor cells lines U87 MG (Cat.# HTB-14), U118 MG (Cat. # HTB-15), U138 (Cat # HTB-16), U373 MG (CAT. # HTB-17), and T98G (Cat. # CRL-1690) and breast cancer cell lines BT-20 (Cat # HTB-19), MDA-MB-231 (Cat # HTB-26), MDA-MB-361 (Cat # HTB-27), and MCF-7 (Cat # HTB-22) were obtained from American Type Culture Collection (ATCC, Rockville, Md.) and maintained as continuous cell lines in Dulbecco's modified Eagles's medium (U87, U118, U138, U373, T98 and BT-20) or Leibovitz's L-15 medium (MDA-MB-231 and MDA-MB-361). All media were supplemented with 10% fetal calf serum (FCS), 4 mM glutamine, 100 U/ml penicillin G and […] streptomycin sulfate. All tissue culture reagents were obtained from Life Technologies Inc. (GIBCO-BRL, Gaithersburg, Md.).
The cytotoxicity of [VO(SO4)(Me2-Phen)2] against human cancer cell lines was analyzed using the MTT (3-[4,5-dimethylthiazol-2-yl]-2,5-diphenyl tetrazolium bromide) assay (Boehringer Mannheim Corp., Indianapolis, Ind.) as described previously (Narla et al., Clin Cancer Res., 4: 1405-1414, 1998). […] The absorbance at 540 nm (a reference wavelength of 690 nm was used) of the solution in each well was measured using a microplate reader (Labsystems). The percent survival and the IC50 values were calculated using Graphpad Prism v2.0 (Graphpad Software, Inc., San Diego, Calif.) as described previously (Narla et al., Supra). […]

Compound: Cc1ccnc2c1ccc1c(C)ccnc12.Cc1ccnc2c1ccc1c(C)ccnc12.O=S(=O)([O-])[O-].[O]=[V+2] [[VO(SO4)(Me2-Phen)2], bis(4,7-dimethyl-1,10-phenanthroline) sulfatooxovanadium (IV)]
- inhibition of tumor cell migration from the spheroids ([1]; 1 μM, 48 h): 58.3±7.3%
- migration distance ([1]; 1 μM): 311.1±54.4 μm
- inhibition of tumor cell migration from the spheroids ([1]; 2 μM, 48 h): 71.2±3.4%
- migration distance ([1]; 2 μM): 214.9±25.7 μm
- IC50 ([1]; U373 spheroids on fibronectin-coated coverslips, 48 h, read-out: IC50 inhibition of tumor cell migration): 1400 ± 200 nM
- IC50 [2]: 2000 ± 400 nM
